Assay results taken from US20100272674A1, “Hepatitis C Virus Inhibitors” (Bristol-Myers Squibb Company, priority 2008, published 2010).

Assays:
[1] = target: T1, HCV NS3/4A protease complex (Hepatitis C virus genotype 1a, UniProt P27958, C1454S/C1711G); assay: FRET peptide assay to monitor HCV NS3/4A proteolytic activity; type: biochemical
T1 construct: DNA encoding the recombinant HCV NS3/4A protease complex (amino acids 1027 to 1711) for these strains; inferred from pET21b vector and Ni-NTA purification; made in house; host or cells: Escherichia coli BL21 (DE3)
T1 sequence (P27958 1027-1711 C1454S/C1711G, one chain of several): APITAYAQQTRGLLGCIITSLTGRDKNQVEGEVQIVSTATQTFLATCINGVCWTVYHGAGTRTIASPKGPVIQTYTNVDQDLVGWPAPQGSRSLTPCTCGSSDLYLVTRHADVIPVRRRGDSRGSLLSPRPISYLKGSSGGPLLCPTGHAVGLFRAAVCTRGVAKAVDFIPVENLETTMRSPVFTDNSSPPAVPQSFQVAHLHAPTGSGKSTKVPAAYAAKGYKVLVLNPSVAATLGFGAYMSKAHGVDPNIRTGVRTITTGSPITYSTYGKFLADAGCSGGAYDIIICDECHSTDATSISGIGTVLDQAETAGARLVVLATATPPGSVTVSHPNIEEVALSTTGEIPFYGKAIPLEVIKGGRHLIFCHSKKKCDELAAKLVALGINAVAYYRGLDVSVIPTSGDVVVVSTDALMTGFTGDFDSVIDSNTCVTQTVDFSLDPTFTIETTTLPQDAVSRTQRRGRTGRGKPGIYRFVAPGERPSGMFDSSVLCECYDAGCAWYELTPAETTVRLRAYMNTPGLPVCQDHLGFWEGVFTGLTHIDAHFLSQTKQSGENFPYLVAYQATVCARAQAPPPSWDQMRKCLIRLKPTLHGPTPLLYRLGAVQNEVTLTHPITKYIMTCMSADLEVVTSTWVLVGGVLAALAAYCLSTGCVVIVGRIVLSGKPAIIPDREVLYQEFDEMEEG
Excerpt: HCV NS3 protease complexes, derived from the BMS strain, H77 strain or J4L6S strain, were generated, as described below. These purified recombinant proteins were generated for use in a homogeneous assay (see below) to provide an indication of how effective compounds of the present disclosure would be in inhibiting HCV NS3 proteolytic activity.
Serum from an HCV-infected patient was obtained from Dr. T. Wright, San Francisco Hospital. An engineered full-length cDNA (compliment deoxyribonucleic acid) template of the HCV genome (BMS strain) was constructed from DNA fragments obtained by reverse transcription-PCR (RT-PCR) of serum RNA (ribonucleic acid) and using primers selected on the basis of homology between other genotype 1a strains. From the determination of the entire genome sequence, a genotype 1a was assigned to the HCV isolate according to the classification of Simmonds et al. (See P Simmonds, K A Rose, S Graham, S W Chan, F McOmish, B C Dow, E A Follett, P L Yap and H Marsden, J. Clin. Microbial., 31(6), 1493-1503 (1993)). […] The infectious clones, H77 (1a genotype) and J4L6S (1b genotype) were obtained from R. Purcell (NIH) and the sequences are published in Genbank (AAB67036, see Yanagi, M., Purcell, R. H., Emerson, S. U. and Bukh, J. Proc. Natl. Acad. Sci. USA. 94(16), 8738-8743 (1997); AF054247, see Yanagi, M., St Claire, M., Shapiro, M., Emerson, S. U., Purcell, R. H. and Bukh, J., Virology 244 (1), 161-172. (1998)).
The H77 and J4L6S strains were used for production of recombinant NS3/4A protease complexes. DNA encoding the recombinant HCV NS3/4A protease complex (amino acids 1027 to 1711) for these strains was manipulated as described by P. Gallinari et al. (see Gallinari P, Paolini C, Brennan D, Nardi C, Steinkuhler C, De Francesco R. Biochemistry. 38(17):5620-32, (1999)). Briefly, a three-lysine solubilizing tail was added at the 3′-end of the NS4A coding region. The cysteine in the P1 position of the NS4A-NS4B cleavage site (amino acid 1711) was changed to a glycine to avoid the proteolytic cleavage of the lysine tag. […]

[2] = tested on: HCV 1b replicon (Renilla luciferase reporter) in HUH-7 cells; assay: HCV replicon luciferase reporter assay; type: cell-based, Hepatitis C virus (strain 1b); conditions: Huh-7, 96 h, 4 days, read-out: Potency in the 1b luciferase assay
Excerpt: As a secondary assay, EC50 determinations from the replicon FRET assay were confirmed in a replicon luciferase reporter assay. Utilization of a replicon luciferase reporter assay was first described by Krieger et al (Krieger N, Lohmann V, and Bartenschlager R, J. Virol. 75(10):4614-4624 (2001)). The replicon construct described for our FRET assay was modified by inserting cDNA encoding a humanized form of the Renilla luciferase gene and a linker sequence fused directly to the 3′-end of the luciferase gene. This insert was introduced into the replicon construct using an Asc1 restriction site located in core, directly upstream of the neomycin marker gene. The adaptive mutation at position 1179 (serine to isoleucine) was also introduced (Blight K J, Kolykhalov, A A, Rice, C M, Science 290(5498):1972-1974). A stable cell line constitutively expressing this HCV replicon construct was generated as described above. The luciferase reporter assay was set up as described for the HCV replicon FRET assay with the following modifications. Following 4 days in a 37° C./5% CO2 incubator, cells were analyzed for Renilla Luciferase activity using the Promega Dual-Glo Luciferase Assay System. Media (100 μl) was removed from each well containing cells. To the remaining 50 μl of media, 50 μl of Dual-Glo Luciferase Reagent was added, and plates rocked for […] to 2 h at room temperature. Dual-Glo Stop & Glo Reagent (50 μl) was then added to each well, and plates were rocked again for an additional 10 min to 2 h at room temperature. Plates were read on a Packard TopCount NXT using a luminescence program.
The percentage inhibition was calculated using the formula below: […]
The values were graphed and analyzed using XLfit to obtain the EC50 value.

[3] = tested on: HCV replicon in HUH-7 cells; assay: HCV replicon FRET assay; type: cell-based, Hepatitis C virus (strain 1b); conditions: Hepatitis C virus, Huh-7, 96 h
Excerpt: An HCV replicon whole cell system was established as described by Lohmann V, Korner F, Koch J, Herian U, Theilmann L, Bartenschlager R., Science 285(5424):110-3 (1999). This system enabled us to evaluate the effects of our HCV Protease compounds on HCV RNA replication. Briefly, using the HCV strain 1b sequence described in the Lohmann paper (Assession number:AJ238799), an HCV cDNA was synthesized by Operon Technologies, Inc. (Alameda, Calif.), and the full-length replicon was then assembled in plasmid pGem9zf(+) (Promega, Madison, Wis.) using standard molecular biology techniques. […]
The HCV replicon FRET assay was developed to monitor the inhibitory effects of compounds described in the disclosure on HCV viral replication. […] After 4 days, cells were first assessed for cytotoxicity using alamar Blue (Trek Diagnotstic Systems) for a CC50 reading. The toxicity of compound (CC50) was determined by adding 1/10th volume of alamar Blue to the media incubating the cells. After 4 h, the fluorescence signal from each well was read, with an excitation wavelength at 530 nm and an emission wavelength of 580 nm, using the Cytofluor Series 4000 (Perspective Biosystems). […]

COc1cc2ccc3cc2cc1CCCCCCOC(=O)N[C@H]1CCCCCCC[C@@H]2C[C@@]2(C(=O)NS(=O)(=O)C2CC2)NC(=O)[C@@H]2C[C@]3(OC)CN2C1=O [Compound 2]
IC50 [1]: 5 nM | EC50 [2]: 3.9 nM

COc1cc2ccc3cc2cc1CCCC(C)(C)CCOC(=O)N[C@H]1CCCCCCC[C@@H]2C[C@@]2(C(=O)NS(=O)(=O)C2CC2)NC(=O)[C@@H]2C[C@]3(OC)CN2C1=O [Compound 3]
IC50 [1]: 1 nM | EC50 [2]: 2.7 nM

COc1cc2ccc3cc2cc1C=CCC(C)(C)COC(=O)N[C@H]1CCCCC/C=C\[C@@H]2C[C@@]2(C(=O)NS(=O)(=O)C2CC2)NC(=O)[C@@H]2C[C@]3(OC)CN2C1=O (mixture of isomers) [Compound 1]
IC50 [1]: 1 nM | EC50 [3]: 9.8 nM | EC50 [2]: 1.6 nM
